According to PubChem BioAssay (NCI):
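Interpolation was linear, between the two tested concentrations surrounding the appropriate level; five concentrations were tested over 48 hours in 96-well plates. TGI denotes the concentration required for complete inhibition of growth.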

Tests used:
Assay in all cases: NCI tumour cell line growth inhibition, 48 h
UO-31 renal = test system: UO-31 renal
HOP-18 NSCLC = test system: HOP-18 NSCLC
NCI-H460 lung = test system: NCI-H460 lung
HCT-116 colon = test system: HCT-116 colon
MCF7 breast = test system: MCF7 breast
SK-MEL-5 melanoma = test system: SK-MEL-5 melanoma
HCC-2998 colon = test system: HCC-2998 colon
SNB-78 CNS = test system: SNB-78 CNS
CCRF-CEM leukemia = test system: CCRF-CEM leukemia
CAKI-1 renal = test system: CAKI-1 renal
HOP-62 NSCLC = test system: HOP-62 NSCLC
IGROV1 ovarian = test system: IGROV1 ovarian
KM12 colon = test system: KM12 colon
RPMI-8226 leukemia = test system: RPMI-8226 leukemia
NCI-H226 lung = test system: NCI-H226 lung
A498 renal = test system: A498 renal
OVCAR-5 ovarian = test system: OVCAR-5 ovarian
HT29 colon = test system: HT29 colon
SK-OV-3 ovarian = test system: SK-OV-3 ovarian
NCI/ADR-RES ovarian = test system: NCI/ADR-RES ovarian
SK-MEL-2 melanoma = test system: SK-MEL-2 melanoma
SF-268 CNS = test system: SF-268 CNS
SNB-75 CNS = test system: SNB-75 CNS
HCT-15 colon = test system: HCT-15 colon
P388/ADR leukemia = test system: P388/ADR leukemia
SF-295 CNS = test system: SF-295 CNS
RXF 393 renal = test system: RXF 393 renal
UACC-62 melanoma = test system: UACC-62 melanoma
NCI-H23 lung = test system: NCI-H23 lung
SN12K1 renal = test system: SN12K1 renal
LOX IMVI melanoma = test system: LOX IMVI melanoma
OVCAR-8 ovarian = test system: OVCAR-8 ovarian
DMS 273 small cell lung = test system: DMS 273 small cell lung
UACC-257 melanoma = test system: UACC-257 melanoma
HL-60(TB) leukemia = test system: HL-60(TB) leukemia
SK-MEL-28 melanoma = test system: SK-MEL-28 melanoma
EKVX NSCLC = test system: EKVX NSCLC
KM20L2 colon = test system: KM20L2 colon
U251 CNS = test system: U251 CNS
DLD-1 colon = test system: DLD-1 colon
SN12C renal = test system: SN12C renal
DMS 114 small cell lung = test system: DMS 114 small cell lung
SF-539 CNS = test system: SF-539 CNS
OVCAR-3 ovarian = test system: OVCAR-3 ovarian
OVCAR-4 ovarian = test system: OVCAR-4 ovarian
K-562 leukemia = test system: K-562 leukemia
A549 NSCLC = test system: A549 NSCLC
MOLT-4 leukemia = test system: MOLT-4 leukemia
SW-620 colon = test system: SW-620 colon
NCI-H522 lung = test system: NCI-H522 lung
HOP-92 NSCLC = test system: HOP-92 NSCLC
SNB-19 CNS = test system: SNB-19 CNS
MALME-3M melanoma = test system: MALME-3M melanoma
COLO 205 colon = test system: COLO 205 colon

Question: Which results are given for `CCCCCCCCCCCC1=C(O)C(=O)C=C(O)C1=O`?
Answer: TGI (UO-31 renal): 14 µM; TGI (HOP-18 NSCLC): 14.6 µM; TGI (NCI-H460 lung): 9.98 µM; TGI (HCT-116 colon): 30.1 µM; TGI (MCF7 breast): 42.2 µM; TGI (SK-MEL-5 melanoma): 10.4 µM; TGI (HCC-2998 colon): 33 µM; TGI (SNB-78 CNS): 149 µM; TGI (CCRF-CEM leukemia): 36.7 µM; TGI (CAKI-1 renal): 15.7 µM; TGI (HOP-62 NSCLC): 12.3 µM; TGI (IGROV1 ovarian): 20.5 µM; TGI (KM12 colon): 31.6 µM; TGI (RPMI-8226 leukemia): 19.3 µM; TGI (NCI-H226 lung): 15.4 µM; TGI (A498 renal): 20.9 µM; TGI (OVCAR-5 ovarian): 24.3 µM; TGI (HT29 colon): 50.2 µM; TGI (SK-OV-3 ovarian): 21.2 µM; TGI (NCI/ADR-RES ovarian): 16.4 µM; TGI (SK-MEL-2 melanoma): 12.5 µM; TGI (SF-268 CNS): 18 µM; TGI (SNB-75 CNS): 17.7 µM; TGI (HCT-15 colon): 49.3 µM; TGI (P388/ADR leukemia): 250 µM; TGI (SF-295 CNS): 17.4 µM; TGI (RXF 393 renal): 54.6 µM; TGI (UACC-62 melanoma): 10.5 µM; TGI (NCI-H23 lung): 29.7 µM; TGI (SN12K1 renal): 30.3 µM; TGI (LOX IMVI melanoma): 38 µM; TGI (OVCAR-8 ovarian): 4.7 µM; TGI (DMS 273 small cell lung): 15.7 µM; TGI (UACC-257 melanoma): 16.7 µM; TGI (HL-60(TB) leukemia): 12.6 µM; TGI (SK-MEL-28 melanoma): 37.5 µM; TGI (EKVX NSCLC): 15.6 µM; TGI (KM20L2 colon): 35.4 µM; TGI (U251 CNS): 22.1 µM; TGI (DLD-1 colon): 51.9 µM; TGI (SN12C renal): 12.9 µM; TGI (DMS 114 small cell lung): 11.9 µM; TGI (SF-539 CNS): 23.3 µM; TGI (OVCAR-3 ovarian): 14.4 µM; TGI (OVCAR-4 ovarian): 33.2 µM; TGI (K-562 leukemia): 75.9 µM; TGI (A549 NSCLC): 13.4 µM; TGI (MOLT-4 leukemia): 44.1 µM; TGI (SW-620 colon): 55.3 µM; TGI (NCI-H522 lung): 66.5 µM; TGI (HOP-92 NSCLC): 11.7 µM; TGI (SNB-19 CNS): 25.7 µM; TGI (MALME-3M melanoma): 16.5 µM; TGI (COLO 205 colon): 27.9 µM
